Assay results published in ChEMBL document CHEMBL1201862, “PubChem BioAssay data set” (2004).
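Dose response: 5 concentrations. Exposure: 48 h. Format: 96-well plates. Endpoint: linear interpolation; highest concentration if not reached. Abbreviation: GI50, concentration required for 50% inhibition of growth.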 Active and inactive are the calls of the source. No stated cut-off is given here; in the data, active = GI50 up to about 1.1 µM and inactive = higher.

How the values were obtained:
Test in all cases: NCI tumour cell line growth inhibition, 48 h
RXF 393 = system: RXF 393
SNB-19 = system: SNB-19
NCI-H522 = system: NCI-H522
A498 = system: A498
HL-60 = system: HL-60
SF-268 = system: SF-268
SR = system: SR
SN12C = system: SN12C
HCT-15 = system: HCT-15
SK-MEL-28 = system: SK-MEL-28
NCI-H23 = system: NCI-H23
SW-620 = system: SW-620
LOX IMVI = system: LOX IMVI
HCT-116 = system: HCT-116
SNB-78 = system: SNB-78
HOP-62 = system: HOP-62
UACC-62 = system: UACC-62
HCC 2998 = system: HCC 2998
CCRF-CEM = system: CCRF-CEM
NCI-H226 = system: NCI-H226
786-0 = system: 786-0
UACC-257 = system: UACC-257
SF-295 = system: SF-295
RPMI-8226 = system: RPMI-8226
KM-20L2 = system: KM-20L2
M14 = system: M14
NCI-H460 = system: NCI-H460
TK-10 = system: TK-10
K562 = system: K562
Malme-3M = system: Malme-3M
OVCAR-5 = system: OVCAR-5
CAKI-1 = system: CAKI-1
OVCAR-4 = system: OVCAR-4
A549 = system: A549
UO-31 = system: UO-31
HOP-92 = system: HOP-92
KM12 = system: KM12
HT-29 = system: HT-29
OVCAR-8 = system: OVCAR-8
DMS-114 = system: DMS-114
ACHN = system: ACHN
COLO 205 = system: COLO 205
SK-MEL-2 = system: SK-MEL-2
MOLT-4 = system: MOLT-4
OVCAR-3 = system: OVCAR-3
DMS-273 = system: DMS-273
SF-539 = system: SF-539
EKVX = system: EKVX
SNB-75 = system: SNB-75
SK-MEL-5 = system: SK-MEL-5
SK-OV-3 = system: SK-OV-3
IGROV-1 = system: IGROV-1
U-251 = system: U-251
M19-MEL = system: M19-MEL
DLD-1 = system: DLD-1
LXFL 529 = system: LXFL 529
NCI/ADR-RES = system: NCI/ADR-RES
PC-3 = system: PC-3
MDA-MB-231 = system: MDA-MB-231
BT-549 = system: BT-549
Hs-578T = system: Hs-578T
DU-145 = system: DU-145
MCF7 = system: MCF7

For `FC(F)(F)c1ccc(/C=N/C23CC4CC(CC(C4)C2)C3)cc1`, the GI50 (RXF 393) was > 100 µM (inactive), the GI50 (SNB-19) was > 100 µM (inactive) and the GI50 (NCI-H522) was > 100 µM (inactive). For the same compound, the GI50 (A498) was > 100 µM (inactive), the GI50 (HL-60) was > 100 µM (inactive) and the GI50 (SF-268) was > 100 µM (inactive). For the same compound, the GI50 (SR) was > 100 µM (inactive), the GI50 (SN12C) was > 100 µM (inactive) and the GI50 (HCT-15) was over 100 µM. For the same compound, the GI50 (SK-MEL-28) was > 100 µM (inactive), the GI50 (NCI-H23) was > 100 µM (inactive) and the GI50 (SW-620) was > 100 µM (inactive). The GI50 (LOX IMVI) was > 100 µM (inactive), the GI50 (HCT-116) was > 100 µM (inactive) and the GI50 (SNB-78) was > 100 µM (inactive). The GI50 (HOP-62) was > 100 µM (inactive), the GI50 (UACC-62) was > 100 µM (inactive) and the GI50 (HCC 2998) was > 100 µM (inactive). For the same compound, the GI50 (CCRF-CEM) was > 100 µM (inactive), the GI50 (NCI-H226) was > 100 µM (inactive) and the GI50 (786-0) was > 100 µM (inactive). The GI50 (UACC-257) was > 100 µM (inactive), the GI50 (SF-295) was > 100 µM (inactive) and the GI50 (RPMI-8226) was > 100 µM (inactive). The GI50 (KM-20L2) was > 100 µM (inactive), the GI50 (M14) was > 100 µM (inactive) and the GI50 (NCI-H460) was > 100 µM (inactive). The GI50 (TK-10) was > 100 µM (inactive), the GI50 (K562) was > 100 µM (inactive) and the GI50 (Malme-3M) was > 100 µM (inactive). The GI50 (OVCAR-5) was > 100 µM (inactive), the GI50 (CAKI-1) was > 100 µM (inactive) and the GI50 (OVCAR-4) was > 100 µM (inactive). For the same compound, the GI50 (A549) was > 100 µM (inactive), the GI50 (UO-31) was > 100 µM (inactive) and the GI50 (HOP-92) was > 100 µM (inactive). For the same compound, the GI50 (KM12) was > 100 µM (inactive), the GI50 (HT-29) was > 100 µM (inactive) and the GI50 (OVCAR-8) was > 100 µM (inactive). The GI50 (DMS-114) was > 100 µM (inactive), the GI50 (ACHN) was > 100 µM (inactive) and the GI50 (COLO 205) was > 100 µM (inactive). The GI50 (SK-MEL-2) was > 100 µM (inactive), the GI50 (MOLT-4) was > 100 µM (inactive) and the GI50 (OVCAR-3) was > 100 µM (inactive). For the same compound, the GI50 (DMS-273) was > 100 µM (inactive), the GI50 (SF-539) was > 100 µM (inactive) and the GI50 (EKVX) was > 100 µM (inactive). For the same compound, the GI50 (SNB-75) was > 100 µM (inactive), the GI50 (SK-MEL-5) was > 100 µM (inactive) and the GI50 (SK-OV-3) was > 100 µM (inactive). For the same compound, the GI50 (IGROV-1) was > 100 µM (inactive) and the GI50 (U-251) was > 100 µM (inactive).

With `CCOC(=O)C(Cc1ccc(N=NN(C)C)cc1)NC(=O)CC1c2ccccc2-c2ccccc21` (centres undefined) the GI50 (SNB-19) was > 100 µM (inactive), the GI50 (NCI-H522) was 56.2 µM (inactive) and the GI50 (A498) was > 100 µM (inactive). For the same compound, the GI50 (HL-60) was > 100 µM (inactive), the GI50 (SF-268) was > 100 µM (inactive) and the GI50 (SR) was 48.9 µM (inactive). The GI50 (SN12C) was > 100 µM (inactive), the GI50 (HCT-15) was over 100 µM and the GI50 (SK-MEL-28) was > 100 µM (inactive). For the same compound, the GI50 (NCI-H23) was > 100 µM (inactive), the GI50 (SW-620) was > 100 µM (inactive) and the GI50 (LOX IMVI) was 85.3 µM (inactive). The GI50 (M19-MEL) was 49.3 µM (inactive), the GI50 (HCT-116) was > 100 µM (inactive) and the GI50 (HOP-62) was > 100 µM (inactive). For the same compound, the GI50 (UACC-62) was 42.9 µM (inactive), the GI50 (HCC 2998) was > 100 µM (inactive) and the GI50 (CCRF-CEM) was 62.8 µM (inactive). The GI50 (NCI-H226) was > 100 µM (inactive), the GI50 (786-0) was 82.4 µM (inactive) and the GI50 (UACC-257) was > 100 µM (inactive). The GI50 (SF-295) was > 100 µM (inactive), the GI50 (RPMI-8226) was 41.6 µM (inactive) and the GI50 (M14) was > 100 µM (inactive). For the same compound, the GI50 (NCI-H460) was 71.6 µM (inactive), the GI50 (TK-10) was > 100 µM (inactive) and the GI50 (K562) was 75.2 µM (inactive). For the same compound, the GI50 (DLD-1) was 48.1 µM (inactive), the GI50 (Malme-3M) was > 100 µM (inactive) and the GI50 (OVCAR-5) was > 100 µM (inactive). For the same compound, the GI50 (CAKI-1) was > 100 µM (inactive), the GI50 (OVCAR-4) was > 100 µM (inactive) and the GI50 (A549) was 81.7 µM (inactive). For the same compound, the GI50 (UO-31) was > 100 µM (inactive), the GI50 (LXFL 529) was 50.5 µM (inactive) and the GI50 (KM12) was > 100 µM (inactive). The GI50 (HT-29) was > 100 µM (inactive), the GI50 (OVCAR-8) was > 100 µM (inactive) and the GI50 (DMS-114) was > 100 µM (inactive). For the same compound, the GI50 (ACHN) was 35.6 µM (inactive), the GI50 (COLO 205) was 92.7 µM (inactive) and the GI50 (SK-MEL-2) was > 100 µM (inactive). The GI50 (MOLT-4) was 38.3 µM (inactive), the GI50 (OVCAR-3) was 36.1 µM (inactive) and the GI50 (DMS-273) was 55.3 µM (inactive). The GI50 (SF-539) was > 100 µM (inactive), the GI50 (EKVX) was > 100 µM (inactive) and the GI50 (SNB-75) was > 100 µM (inactive). For the same compound, the GI50 (SK-MEL-5) was 57 µM (inactive), the GI50 (SK-OV-3) was > 100 µM (inactive) and the GI50 (IGROV-1) was 69.8 µM (inactive). For the same compound, the GI50 (U-251) was 39.7 µM (inactive).

With `CCOc1ccc(NCc2cc(OC)c(OC)c(OC)c2)cc1` the GI50 (SNB-19) was 1.95 µM (inactive), the GI50 (NCI-H522) was 0.333 µM (active) and the GI50 (HL-60) was 0.257 µM (active). For the same compound, the GI50 (SF-268) was 2.29 µM (inactive), the GI50 (SR) was 0.256 µM (active) and the GI50 (HCT-15) was 0.335 µM. For the same compound, the GI50 (SK-MEL-28) was 2.57 µM (inactive), the GI50 (NCI-H23) was 1.24 µM (inactive) and the GI50 (SW-620) was 0.35 µM (active). For the same compound, the GI50 (NCI/ADR-RES) was 0.324 µM (active), the GI50 (LOX IMVI) was 0.643 µM (active) and the GI50 (HCT-116) was 0.427 µM (active). For the same compound, the GI50 (HOP-62) was 0.753 µM (active), the GI50 (PC-3) was 1.5 µM (inactive) and the GI50 (MDA-MB-231) was 2.5 µM (inactive). The GI50 (UACC-62) was 0.423 µM (active), the GI50 (HCC 2998) was 0.771 µM (active) and the GI50 (NCI-H226) was 10.3 µM (inactive). For the same compound, the GI50 (BT-549) was 0.12 µM (active), the GI50 (786-0) was 0.723 µM (active) and the GI50 (UACC-257) was 20.9 µM (inactive). The GI50 (SF-295) was 0.306 µM (active), the GI50 (RPMI-8226) was 0.944 µM (active) and the GI50 (KM-20L2) was 0.333 µM (active). For the same compound, the GI50 (M14) was 0.371 µM (active), the GI50 (NCI-H460) was 0.499 µM (active) and the GI50 (K562) was 0.215 µM (active). For the same compound, the GI50 (DLD-1) was 0.807 µM (active), the GI50 (OVCAR-4) was 41.6 µM (inactive) and the GI50 (A549) was 0.847 µM (active). For the same compound, the GI50 (UO-31) was 4.8 µM (inactive), the GI50 (HOP-92) was 5.43 µM (inactive) and the GI50 (KM12) was 0.276 µM (active). The GI50 (HT-29) was 0.366 µM (active), the GI50 (DMS-114) was 0.291 µM (active) and the GI50 (ACHN) was 10.7 µM (inactive). The GI50 (COLO 205) was 0.384 µM (active), the GI50 (MOLT-4) was 0.582 µM (active) and the GI50 (Hs-578T) was 1.38 µM (inactive). For the same compound, the GI50 (DU-145) was 2.57 µM (inactive), the GI50 (OVCAR-3) was 0.339 µM (active) and the GI50 (SF-539) was 0.486 µM (active). For the same compound, the GI50 (MCF7) was 0.435 µM (active), the GI50 (EKVX) was 34.9 µM (inactive) and the GI50 (SNB-75) was 1.04 µM (active). For the same compound, the GI50 (SK-MEL-5) was 0.506 µM (active), the GI50 (SK-OV-3) was 0.706 µM (active) and the GI50 (IGROV-1) was 1.49 µM (inactive). The GI50 (U-251) was 0.513 µM (active).
